{"source": "ChEMBL document CHEMBL2331105", "about": "“Selective Cyp11B1 Inhibitors for the Treatment of Cortisol Dependent Diseases” (ACS Med Chem Lett, 2013)", "key": {"[1]": {"biological_target": "T1, Cytochrome P450 11B2, mitochondrial (Homo sapiens, UniProt P19099)", "T1 sequence (P19099 whole entry)": "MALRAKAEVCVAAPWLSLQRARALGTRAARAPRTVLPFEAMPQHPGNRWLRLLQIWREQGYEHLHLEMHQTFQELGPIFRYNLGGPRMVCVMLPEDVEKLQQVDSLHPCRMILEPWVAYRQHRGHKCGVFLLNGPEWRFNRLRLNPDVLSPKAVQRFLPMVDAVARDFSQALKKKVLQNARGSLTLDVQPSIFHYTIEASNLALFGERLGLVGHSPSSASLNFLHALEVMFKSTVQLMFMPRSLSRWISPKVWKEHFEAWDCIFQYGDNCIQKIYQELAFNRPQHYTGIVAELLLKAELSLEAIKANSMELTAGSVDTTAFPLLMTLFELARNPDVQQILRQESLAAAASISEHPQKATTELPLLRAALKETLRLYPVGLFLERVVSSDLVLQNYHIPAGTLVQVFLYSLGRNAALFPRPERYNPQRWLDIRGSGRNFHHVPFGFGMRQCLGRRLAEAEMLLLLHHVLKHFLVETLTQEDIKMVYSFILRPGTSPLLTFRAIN", "experiment": "Inhibition of human CYP11B2 expressed in hamster V79MZ cells using [1,2-3H]11-deoxycorticosterone as substrate preincubated for 60 mins prior to substrate addition measured after 50 mins by HPLC analysis", "type": "cell-based"}, "[2]": {"biological_target": "T2, Cytochrome P450 11B1, mitochondrial (Homo sapiens, UniProt P15538)", "T2 sequence (P15538 whole entry)": "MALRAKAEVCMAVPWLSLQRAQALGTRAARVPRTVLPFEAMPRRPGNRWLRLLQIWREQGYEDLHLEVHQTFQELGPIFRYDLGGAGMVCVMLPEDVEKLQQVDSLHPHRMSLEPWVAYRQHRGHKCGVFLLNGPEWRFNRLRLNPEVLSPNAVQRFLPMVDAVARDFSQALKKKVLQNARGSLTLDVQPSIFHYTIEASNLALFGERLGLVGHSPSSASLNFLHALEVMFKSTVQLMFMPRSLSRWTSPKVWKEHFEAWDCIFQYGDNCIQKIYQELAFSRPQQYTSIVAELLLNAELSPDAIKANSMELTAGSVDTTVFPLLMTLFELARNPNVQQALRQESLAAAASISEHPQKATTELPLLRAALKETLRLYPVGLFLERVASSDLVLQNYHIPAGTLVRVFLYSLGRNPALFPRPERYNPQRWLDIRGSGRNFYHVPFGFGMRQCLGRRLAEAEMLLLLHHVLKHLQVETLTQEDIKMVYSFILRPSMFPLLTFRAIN", "experiment": "Inhibition of human CYP11B1 expressed in hamster V79MZ cells using [1,2-3H]11-deoxycorticosterone as substrate preincubated for 60 mins prior to substrate addition measured after 25 mins by HPLC analysis", "type": "cell-based"}}, "data": [{"smiles": "Fc1ccc(Cn2ccnc2)cn1", "values": [{"measurement": "IC50", "setting": "[1]", "value": 1.74, "unit": "µM"}, {"measurement": "IC50", "setting": "[2]", "value": 0.072, "unit": "µM"}]}]}
